Assays:
Format in all cases: in vivo
Setaria viridis (SETVI) [1] = test: Herbicidal post-emergence action (D), 320 g/ha; conditions: ca. 3 weeks
Outline: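 Post-emergence greenhouse spray of WP or EC formulations plus 0.5% additive at 600 l water/ha onto single-leaf-stage plants, 2–3 weeks after sowing in sandy loam. About 3 weeks later, effect was rated visually against untreated controls as % herbicidal effect, where 0% means like control and 100% means plants dead.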

[2] = test system: Kochia scoparia (KCHSC; Bassia scoparia); test: Herbicidal pre-emergence action (A), 1280 g/ha; conditions: visual grading after ca. 3 weeks vs untreated controls
Outline: (§1)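 Pre-emergence greenhouse test: seeds sown in sandy loam pots, WP or EC formulations sprayed onto covering soil as aqueous suspension/emulsion with 0.5% additive at 600 l water/ha. Damage graded visually after ca. 3 weeks versus untreated controls, 0% = as control, 100% = plants dead.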

[3] = test system: Matricaria inodora (MATIN); test: Herbicidal pre-emergence action (A), 1280 g/ha; conditions: visual grading after ca. 3 weeks vs untreated controls
Outline: as §1

[4] = test system: Alopecurus myosuroides (ALOMY); test: Herbicidal pre-emergence action (A), 1280 g/ha; conditions: visual grading after ca. 3 weeks vs untreated controls, 100% = plants have died off, 0% = as control plants
Outline: as §1

Poa annua (POAAN) = test: Herbicidal pre-emergence action (A), 1280 g/ha; conditions: visual grading after ca. 3 weeks vs untreated controls, 100% = plants have died off, 0% = as control plants
Outline: as §1

Stellaria media (STEME) = test: Herbicidal pre-emergence action (A), 1280 g/ha; conditions: visual grading after ca. 3 weeks vs untreated controls
Outline: as §1

Veronica persica (VERPE) = test: Herbicidal pre-emergence action (A), 1280 g/ha; conditions: visual grading after ca. 3 weeks vs untreated controls
Outline: as §1

Setaria viridis (SETVI) [5] = test: Herbicidal pre-emergence action (A), 1280 g/ha; conditions: visual grading after ca. 3 weeks vs untreated controls
Outline: as §1

[6] = test system: Abutilon theophrasti (ABUTH); test: Herbicidal pre-emergence action (A), 1280 g/ha; conditions: visual grading after ca. 3 weeks vs untreated controls, 100% = plants have died off, 0% = as control plants
Outline: as §1

[7] = test system: Echinochloa crus-galli (ECHCG); test: Herbicidal pre-emergence action (A), 1280 g/ha; conditions: visual grading after ca. 3 weeks vs untreated controls, 100% = plants have died off, 0% = as control plants
Outline: as §1

[8] = test system: Amaranthus retroflexus (AMARE); test: Herbicidal pre-emergence action (A), 1280 g/ha; conditions: visual grading after ca. 3 weeks vs untreated controls
Outline: as §1

[9] = test system: Digitaria sanguinalis (DIGSA); test: Herbicidal pre-emergence action (A), 1280 g/ha; conditions: visual grading after ca. 3 weeks vs untreated controls, 100% = plants have died off, 0% = as control plants
Outline: as §1

Lolium rigidum (LOLRI) = test: Herbicidal pre-emergence action (A), 1280 g/ha; conditions: visual grading after ca. 3 weeks vs untreated controls, 100% = plants have died off, 0% = as control plants
Outline: as §1

[10] = test system: Digitaria sanguinalis (DIGSA); test: Herbicidal pre-emergence action (C), 320 g/ha; conditions: ca. 3 weeks
Outline: (§2)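 Weed and crop seeds sown in sandy loam; WP or EC formulations applied pre-emergence to the soil surface as aqueous suspension/emulsion with 0.5% additive at 600 l water/ha. Greenhouse-grown under optimum conditions; damage visually scored after ca. 3 weeks versus untreated controls (0% = as control, 100% = plants dead).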

[11] = test system: Matricaria inodora (MATIN); test: Herbicidal pre-emergence action (C), 320 g/ha; conditions: ca. 3 weeks
Outline: (§3)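 Sandy loam pots, seeds covered with soil → WP/EC compound sprayed on soil surface (aq., +0.5% additive, 600 l/ha) → greenhouse, optimum growth → visual herbicidal effect (%) at ca. 3 wk vs untreated.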

Viola tricolor (VIOTR) = test: Herbicidal pre-emergence action (C), 320 g/ha; conditions: ca. 3 weeks
Outline: as §3

[12] = test system: Abutilon theophrasti (ABUTH); test: Herbicidal pre-emergence action (C), 320 g/ha; conditions: ca. 3 weeks
Outline: as §3

[13] = test system: Polygonum convolvulus (POLCO); test: Herbicidal pre-emergence action (C), 320 g/ha; conditions: ca. 3 weeks
Outline: as §3

Avena fatua = test: Herbicidal pre-emergence action (C), 320 g/ha; conditions: ca. 3 weeks
Outline: as §2

[14] = test system: Matricaria inodora (MATIN); test: Herbicidal post-emergence action (B), 1280 g/ha; conditions: rated visually after about 3 weeks vs untreated controls
Outline: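 Post-emergence greenhouse test: weeds in sandy loam treated at the one-leaf stage, 2 to 3 weeks after sowing, with WP or EC formulations plus 0.5% additive at 600 l/ha water. Visual activity versus untreated controls after about 3 weeks (100% = dead, 0% = like control).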

CCc1cc2scnc2nc1-c1ccccc1F [Example I-023]
herbicidal effect SETVI (Setaria viridis (SETVI) [1]): 80% | herbicidal effect KCHSC [2]: 100% | herbicidal effect MATIN [3]: 100% | ALOMY, herbicidal effect in percent (%) [4]: 100% | POAAN, herbicidal effect in percent (%) (Poa annua (POAAN)): 100% | herbicidal effect STEME (Stellaria media (STEME)): 90% | herbicidal effect VERPE (Veronica persica (VERPE)): 100% | herbicidal effect SETVI (Setaria viridis (SETVI) [5]): 100% | ABUTH, herbicidal effect in percent (%) [6]: 90% | ECHCG, herbicidal effect in percent (%) [7]: 100% | herbicidal effect AMARE [8]: 100% | DIGSA, herbicidal effect in percent (%) [9]: 100% | LOLRI, herbicidal effect in percent (%) (Lolium rigidum (LOLRI)): 100% | herbicidal effect DIGSA [10]: 100% | herbicidal effect MATIN [11]: 90% | herbicidal effect VIOTR (Viola tricolor (VIOTR)): 80% | herbicidal effect ABUTH [12]: 80% | herbicidal effect POLCO [13]: 80%

Fc1ccccc1-c1ccc2scnc2n1 [Example I-036, 5-(2-fluorophenyl)thiazolo[4,5-b]pyridine]
herbicidal effect SETVI (Setaria viridis (SETVI) [1]): 80% | herbicidal effect MATIN [3]: 90% | POAAN, herbicidal effect in percent (%) (Poa annua (POAAN)): 100% | herbicidal effect STEME (Stellaria media (STEME)): 90% | herbicidal effect SETVI (Setaria viridis (SETVI) [5]): 100% | ECHCG, herbicidal effect in percent (%) [7]: 100% | herbicidal effect AMARE [8]: 90% | LOLRI, herbicidal effect in percent (%) (Lolium rigidum (LOLRI)): 100% | herbicidal effect DIGSA [10]: 100% | herbicidal effect AVEFA (Avena fatua): 100% | herbicidal effect MATIN [11]: 100% | herbicidal effect VIOTR (Viola tricolor (VIOTR)): 100% | herbicidal effect ABUTH [12]: 90% | herbicidal effect POLCO [13]: 90% | herbicidal activity MATIN [14]: 100%

Cc1cc2scnc2nc1-c1ccccc1Cl [Example I-045]
herbicidal effect SETVI (Setaria viridis (SETVI) [1]): 80% | herbicidal effect KCHSC [2]: 100% | herbicidal effect MATIN [3]: 100% | ALOMY, herbicidal effect in percent (%) [4]: 100% | POAAN, herbicidal effect in percent (%) (Poa annua (POAAN)): 100% | herbicidal effect STEME (Stellaria media (STEME)): 100% | herbicidal effect VERPE (Veronica persica (VERPE)): 100% | herbicidal effect SETVI (Setaria viridis (SETVI) [5]): 100% | ABUTH, herbicidal effect in percent (%) [6]: 90% | ECHCG, herbicidal effect in percent (%) [7]: 100% | herbicidal effect AMARE [8]: 100% | DIGSA, herbicidal effect in percent (%) [9]: 100% | LOLRI, herbicidal effect in percent (%) (Lolium rigidum (LOLRI)): 100% | herbicidal effect DIGSA [10]: 100% | herbicidal effect AVEFA (Avena fatua): 90% | herbicidal effect VIOTR (Viola tricolor (VIOTR)): 80% | herbicidal effect ABUTH [12]: 80% | herbicidal effect POLCO [13]: 80%

CCc1cc2scnc2nc1-c1ccccc1 [Example I-051]
herbicidal effect SETVI (Setaria viridis (SETVI) [1]): 80% | herbicidal effect KCHSC [2]: 90% | herbicidal effect MATIN [3]: 90% | ALOMY, herbicidal effect in percent (%) [4]: 100% | POAAN, herbicidal effect in percent (%) (Poa annua (POAAN)): 100% | herbicidal effect STEME (Stellaria media (STEME)): 90% | herbicidal effect VERPE (Veronica persica (VERPE)): 90% | herbicidal effect SETVI (Setaria viridis (SETVI) [5]): 100% | ABUTH, herbicidal effect in percent (%) [6]: 90% | ECHCG, herbicidal effect in percent (%) [7]: 100% | DIGSA, herbicidal effect in percent (%) [9]: 100% | LOLRI, herbicidal effect in percent (%) (Lolium rigidum (LOLRI)): 100% | herbicidal effect DIGSA [10]: 100% | herbicidal effect AVEFA (Avena fatua): 90% | herbicidal effect MATIN [11]: 90% | herbicidal effect VIOTR (Viola tricolor (VIOTR)): 100% | herbicidal effect ABUTH [12]: 90% | herbicidal effect POLCO [13]: 80% | herbicidal activity MATIN [14]: 100%

Cc1cc2scnc2nc1-c1sccc1Cl [Example I-137]
herbicidal effect KCHSC [2]: 100% | herbicidal effect MATIN [3]: 90% | ALOMY, herbicidal effect in percent (%) [4]: 100% | POAAN, herbicidal effect in percent (%) (Poa annua (POAAN)): 100% | herbicidal effect STEME (Stellaria media (STEME)): 100% | herbicidal effect VERPE (Veronica persica (VERPE)): 100% | herbicidal effect SETVI (Setaria viridis (SETVI) [5]): 100% | ABUTH, herbicidal effect in percent (%) [6]: 100% | ECHCG, herbicidal effect in percent (%) [7]: 100% | herbicidal effect AMARE [8]: 100% | DIGSA, herbicidal effect in percent (%) [9]: 100% | LOLRI, herbicidal effect in percent (%) (Lolium rigidum (LOLRI)): 100% | herbicidal effect DIGSA [10]: 100% | herbicidal effect AVEFA (Avena fatua): 80% | herbicidal effect MATIN [11]: 90% | herbicidal effect VIOTR (Viola tricolor (VIOTR)): 90% | herbicidal activity MATIN [14]: 90%
